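Here, GI50 denotes the concentration required for 50% inhibition of growth. TGI denotes the concentration required for complete inhibition of growth.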
Experiments:
Assay in all cases: NCI-60 cell line screen, 384-well format
OVCAR-5 ovarian = system: OVCAR-5 ovarian
A549 NSCLC = system: A549 NSCLC
CCRF-CEM leukemia = system: CCRF-CEM leukemia
SK-MEL-28 melanoma = system: SK-MEL-28 melanoma
DU-145 prostate = system: DU-145 prostate
RPMI-8226 leukemia = system: RPMI-8226 leukemia
NCI-H23 lung = system: NCI-H23 lung
ACHN renal = system: ACHN renal
EKVX NSCLC = system: EKVX NSCLC
HCC-2998 colon = system: HCC-2998 colon
SNB-19 CNS = system: SNB-19 CNS
A498 renal = system: A498 renal
M14 melanoma = system: M14 melanoma
NCI-H322M lung = system: NCI-H322M lung
CAKI-1 renal = system: CAKI-1 renal
BT-549 breast = system: BT-549 breast
SF-268 CNS = system: SF-268 CNS
SN12C renal = system: SN12C renal
TK-10 renal = system: TK-10 renal
SF-295 CNS = system: SF-295 CNS
OVCAR-8 ovarian = system: OVCAR-8 ovarian
MCF7 breast = system: MCF7 breast
MDA-MB-435 melanoma = system: MDA-MB-435 melanoma
T-47D breast = system: T-47D breast
SNB-75 CNS = system: SNB-75 CNS
NCI-H460 NSCLC = system: NCI-H460 NSCLC
MALME-3M melanoma = system: MALME-3M melanoma
HCT-15 colon = system: HCT-15 colon
OVCAR-4 ovarian = system: OVCAR-4 ovarian
NCI/ADR-RES ovarian = system: NCI/ADR-RES ovarian
SK-MEL-5 melanoma = system: SK-MEL-5 melanoma
U251 glioblastoma = system: U251 glioblastoma
NCI-H226 lung = system: NCI-H226 lung
MDA-MB-468 breast = system: MDA-MB-468 breast
SW-620 colon = system: SW-620 colon
UACC-257 melanoma = system: UACC-257 melanoma
RXF 393 renal = system: RXF 393 renal
PC-3 prostate = system: PC-3 prostate
IGROV1 ovarian = system: IGROV1 ovarian
KM12 colon = system: KM12 colon
MDA-MB-231 breast = system: MDA-MB-231 breast
HL-60(TB) leukemia = system: HL-60(TB) leukemia
OVCAR-3 ovarian = system: OVCAR-3 ovarian
NCI-H522 lung = system: NCI-H522 lung
HS 578T breast = system: HS 578T breast
SR leukemia = system: SR leukemia
HOP-62 NSCLC = system: HOP-62 NSCLC
HOP-92 NSCLC = system: HOP-92 NSCLC
MOLT-4 leukemia = system: MOLT-4 leukemia
SF-539 CNS = system: SF-539 CNS
786-0 renal = system: 786-0 renal
COLO 205 colon = system: COLO 205 colon
SK-OV-3 ovarian = system: SK-OV-3 ovarian
HT29 colon = system: HT29 colon
UACC-62 melanoma = system: UACC-62 melanoma

Compound: Nc1nc(N)c(N=O)c(OCC2CCCCC2)n1
- GI50 (OVCAR-5 ovarian): 17.2 µM
- TGI (OVCAR-5 ovarian): 82.2 µM
- GI50 (A549 NSCLC): 17.6 µM
- TGI (A549 NSCLC): 64.1 µM
- GI50 (CCRF-CEM leukemia): 4.9 µM
- TGI (CCRF-CEM leukemia): 17 µM
- GI50 (SK-MEL-28 melanoma): 22.3 µM
- TGI (SK-MEL-28 melanoma): 97.1 µM
- GI50 (DU-145 prostate): 13.2 µM
- TGI (DU-145 prostate): > 100 µM
- GI50 (RPMI-8226 leukemia): 4.88 µM
- TGI (RPMI-8226 leukemia): 13.9 µM
- GI50 (NCI-H23 lung): 15.6 µM
- TGI (NCI-H23 lung): 46.6 µM
- GI50 (ACHN renal): 27.3 µM
- TGI (ACHN renal): 85.9 µM
- GI50 (EKVX NSCLC): 22.3 µM
- TGI (EKVX NSCLC): 70.3 µM
- GI50 (HCC-2998 colon): 15.1 µM
- TGI (HCC-2998 colon): > 100 µM
- GI50 (SNB-19 CNS): 31.1 µM
- TGI (SNB-19 CNS): > 100 µM
- GI50 (A498 renal): 5.34 µM
- TGI (A498 renal): 25.3 µM
- GI50 (M14 melanoma): 11.4 µM
- TGI (M14 melanoma): 79 µM
- GI50 (NCI-H322M lung): 24.6 µM
- TGI (NCI-H322M lung): > 100 µM
- GI50 (CAKI-1 renal): 8.55 µM
- TGI (CAKI-1 renal): 31.6 µM
- GI50 (BT-549 breast): 5.63 µM
- TGI (BT-549 breast): 26.1 µM
- GI50 (SF-268 CNS): 21.2 µM
- TGI (SF-268 CNS): 78.7 µM
- GI50 (SN12C renal): 13.6 µM
- TGI (SN12C renal): 57.1 µM
- GI50 (TK-10 renal): 7.67 µM
- TGI (TK-10 renal): 30 µM
- GI50 (SF-295 CNS): 26 µM
- TGI (SF-295 CNS): 87 µM
- GI50 (OVCAR-8 ovarian): 32.9 µM
- TGI (OVCAR-8 ovarian): > 100 µM
- GI50 (MCF7 breast): 5.22 µM
- TGI (MCF7 breast): 91.6 µM
- GI50 (MDA-MB-435 melanoma): 25.4 µM
- TGI (MDA-MB-435 melanoma): > 100 µM
- GI50 (T-47D breast): 6.41 µM
- TGI (T-47D breast): 33.1 µM
- GI50 (SNB-75 CNS): 4.38 µM
- TGI (SNB-75 CNS): 19.7 µM
- GI50 (NCI-H460 NSCLC): 4.94 µM
- TGI (NCI-H460 NSCLC): 26.7 µM
- GI50 (MALME-3M melanoma): 8.62 µM
- TGI (MALME-3M melanoma): 41.9 µM
- GI50 (HCT-15 colon): 5.06 µM
- TGI (HCT-15 colon): > 100 µM
- GI50 (OVCAR-4 ovarian): 19.2 µM
- TGI (OVCAR-4 ovarian): 49.3 µM
- GI50 (NCI/ADR-RES ovarian): 30.6 µM
- TGI (NCI/ADR-RES ovarian): > 100 µM
- GI50 (SK-MEL-5 melanoma): 17.1 µM
- TGI (SK-MEL-5 melanoma): 46.5 µM
- GI50 (U251 glioblastoma): 17.2 µM
- TGI (U251 glioblastoma): 58.8 µM
- GI50 (NCI-H226 lung): 10.9 µM
- TGI (NCI-H226 lung): 54.1 µM
- GI50 (MDA-MB-468 breast): 3.29 µM
- TGI (MDA-MB-468 breast): 10.8 µM
- GI50 (SW-620 colon): 45.9 µM
- TGI (SW-620 colon): > 100 µM
- GI50 (UACC-257 melanoma): 23.6 µM
- TGI (UACC-257 melanoma): > 100 µM
- GI50 (RXF 393 renal): 5.32 µM
- TGI (RXF 393 renal): 27.1 µM
- GI50 (PC-3 prostate): 7.78 µM
- TGI (PC-3 prostate): 49.4 µM
- GI50 (IGROV1 ovarian): 4.21 µM
- TGI (IGROV1 ovarian): 18.1 µM
- GI50 (KM12 colon): 21.4 µM
- TGI (KM12 colon): > 100 µM
- GI50 (MDA-MB-231 breast): 10.9 µM
- TGI (MDA-MB-231 breast): 66 µM
- GI50 (HL-60(TB) leukemia): 15 µM
- TGI (HL-60(TB) leukemia): 32.8 µM
- GI50 (OVCAR-3 ovarian): 17.1 µM
- TGI (OVCAR-3 ovarian): > 100 µM
- GI50 (NCI-H522 lung): 5.92 µM
- TGI (NCI-H522 lung): 25.1 µM
- GI50 (HS 578T breast): 4.02 µM
- TGI (HS 578T breast): 16.2 µM
- GI50 (SR leukemia): 3.46 µM
- TGI (SR leukemia): 8.82 µM
- GI50 (HOP-62 NSCLC): 4.57 µM
- TGI (HOP-62 NSCLC): 24.7 µM
- GI50 (HOP-92 NSCLC): 9.41 µM
- TGI (HOP-92 NSCLC): 36.9 µM
- GI50 (MOLT-4 leukemia): 5.83 µM
- TGI (MOLT-4 leukemia): 17.9 µM
- GI50 (SF-539 CNS): 18.5 µM
- TGI (SF-539 CNS): 67.1 µM
- GI50 (786-0 renal): 23.9 µM
- TGI (786-0 renal): > 100 µM
- GI50 (COLO 205 colon): 23.6 µM
- TGI (COLO 205 colon): 56 µM
- GI50 (SK-OV-3 ovarian): 15 µM
- TGI (SK-OV-3 ovarian): 37.6 µM
- GI50 (HT29 colon): 19.3 µM
- TGI (HT29 colon): 90.6 µM
- GI50 (UACC-62 melanoma): 14.5 µM
- TGI (UACC-62 melanoma): 38.7 µM

— PubChem BioAssay (NCI)
